Patent publication US8828997B2, “2,3-dihydro-1H-imidazo(1,2-a)pyrimidin-5-one derivatives, preparation thereof, and pharmaceutical use thereof” (Sanofi, priority 2009, dated 2014)

What was measured:
Type in all cases: cell-based
[1] = system: AKT protein phosphorylated on serine 473 (pAKT-S473) in PC3 human prostate carcinoma cells; assay: pAKT expression in PC3 human prostate carcinoma cells measured by western blotting (test A); conditions: PC-3, 1 to 2 h incubation, absolute IC50
Protocol: (§1) The inhibitory activity of the molecules on AKT phosphorylation is measured either by western blotting using the technique described below, or by the MSD Multi-spot Biomarker detection technique from Meso Scale Discovery also described below.
Study of pAKT Expression in PC3 Human Prostate Carcinoma Cells Measured by Western Blotting (test A):
This test is based on measuring the expression of the AKT protein phosphorylated on serine 473. The phosphorylation of AKT (pAKT) is measured by western blotting in the PC3 human prostate carcinoma line (ATCC CRL-1435), using an antibody that specifically recognises pAKT-S473.
(§2) On day 1, the PC3 cells are seeded into 6-well plates (TPP, #92006) at the concentration of 0.8×10^6 cells/well in 1800 μl of DMEM medium (DMEM Gibco #11960-044) containing 10% of foetal calf serum (SVF Gibco, #10500-056) and 1% glutamine (L-Glu Gibco #25030-024), and incubated at 37° C., 5% CO2, overnight.
(§3) On day 2, the cells are incubated in the presence or absence of the test products for 1 to 2 hours at 37° C. in the presence of 5% CO2. The molecules, diluted in dimethyl sulphoxide (DMSO Sigma #D2650), are added from a 10-times concentrated stock solution, the final percentage of DMSO being 0.1%. The molecules are tested either at a single concentration of less than or equal to 10 μM, or at increasing concentrations in a range that can extend from less than 1 nM to 10 μM.
After this incubation, the cells are lysed for the preparation of the proteins. After the culture medium has been drawn off, the cells are rinsed with 1 ml of PBS (DPBS Gibco, #14190-094), recovered by scraping in 200 μl of complete HNTG buffer and transferred into a 96-well plate (Greiner #651201), and lysed for 1 h on ice. The HNTG buffer is composed of the following mixture: 50 mM hepes, 150 mM NaCl, 1% triton, 10% glycerol, with extemporaneous addition of one Mini Protease Inhibitor Cocktail tablet (Roche 1836153) and of one Phosphatase Inhibitor Cocktail tablet (Roche104906837001) per 10 ml of buffer.
The lysate is centrifuged for 10 min at 6000 rpm. 155 μl of supernatant are recovered. 150 μl are incubated for denaturation for 5 min at 95° C. in the presence of 4× NuPAGE LDS Sample Buffer diluted 4-fold (InVitrogen ref NP0007) and of 10× NuPAGE Sample Reducing Agent diluted 10-fold (InVitrogen ref NP0009). These samples are then frozen at −20° C. 5 μl are assayed by the microBCA technique according to the technical bulletin of the MicroBCA Protein Assay Kit (Pierce #23235).
For protein separation, 20 μg of proteins are loaded on to a NU-PAGE 4-12% Bis Tris Gel 12 well (InVitrogen ref NP0322BOX) and the migration is carried out for 1 h 30 in 20× NU-PAGE MOPS SDS Running Buffer diluted 20-fold (InVitrogen ref NP0001), at 150 volts.
The gel is then transferred on to an Invitrolon PVDF membrane (Invitrogen #LC2007) permeabilised before and after a few seconds in ethanol (Ethanol Fischer Scientific #E/0600DF/15).
The transfer is carried out in a Biorad tank at 30 volts overnight or at 60 volts for 3 hours, in the presence of 20× NUPAGE Transfer Buffer diluted 20-fold (InVitrogen ref NP0006).
The membrane is then saturated in saturating solution composed of TBS (10× Tris Buffered Saline, Sigma #T5912, diluted 10-fold), 0.1% Tween 20 (Sigma #P5927) and 3% BSA (Bovine Albumin Serum Fraction V, Sigma #A4503) for 6 h after overnight transfer or else for 1 h after transfer for a period of 3 h.
The primary antibodies are diluted to 1/1000 for the anti-phospho AKT-Ser473 antibody (1931-12, rabbit monoclonal, cat#4058 from Cell Signaling Technology Abcam), in saturating solution composed of PBS, 0.1% Tween 20 and 3% BSA, and then shaken overnight at 4° C.
Two rinses for 5 min in washing solution composed of TBS and 0.1% Tween 20 are carried out before hybridisation of the secondary antibodies. […]

[2] = system: translocation of the LC3 protein in Hela GFP-LC3 cells; assay: Translocation of the LC3 protein in Hela human cells measured by image analysis cytometry (test C, autophagy); conditions: Homo sapiens, HeLa, 2 h, EBSS + 10 μM hydroxychloroquine, cells with LC3 granulations, absolute IC50
Protocol: Inhibitory activity of the molecules on autophagy is measured by means of the translocation of the LC3 protein from the cytoplasm to the autophagosomes. For this, Hela cells were transfected with a vector encoding the chimeric protein GFP-LC3. A Hela clone stably expressing the GFP-LC3 protein was selected.
Study of the Translocation of the LC3 Protein in Hela Human Cells, Measured by Image Analysis Cytometry (Test C):
as §2, with “Hela GFP-LC3” for “PC3”, “96-well” for “6-well”, “coated with poly-D-lysine (Greiner, #655946)” for “(TPP, #92006)”, “15000” for “0.8×10^6”, “200” for “1800”, “(FCS” for “(SVF”
On day 2, the cells are washed twice with EBSS (Sigma #E3024). The cells are then incubated in EBSS, 10 μM hydroxychloroquine and test products, for 2 hours at 37° C. in the presence of 5% CO2. The molecules are diluted in dimethyl sulphoxide (DMSO Sigma #D2650), the final DMSO percentage being 0.1%. The molecules are tested at increasing concentrations in a range that can extend from 10 nM to 1 μM.
After this incubation, the cells are fixed with 4% paraformaldehyde (Sigma #HT501128 4L) for 10 min. The cells are then washed twice with PBS and the nuclei then stained with 2 μg/ml of Hoechst 33342 (Invitrogen #H3570). The 96-well plates are then read with the iCyte image analysis cytometer (Compucyte).
The activity of the product is translated to IC50, obtained from a dose-response curve of various concentrations tested and representing the dose giving 50% specific inhibition (absolute IC50). 2 independent experiments make it possible to calculate the mean of the IC50 values.

[3] = system: AKT protein phosphorylated on serine 473 (P-AKT-S473) in PC3 human prostate carcinoma cells; assay: pAKT expression in PC3 human prostate carcinoma cells measured by MSD Multi-spot Biomarker detection (test B); conditions: Homo sapiens, PC-3, P-AKT-S473, PC3 cells, MSD sandwich immunoassay, 1 to 2 h incubation, absolute IC50
Protocol: as §1
Study of pAKT Expression in PC3 Human Prostate Carcinoma Cells Measured by the MSD Multi-Spot Biomarker Detection Technique from Meso Scale Discovery (Test B):
This test is based on measuring the expression of the AKT protein phosphorylated on serine 473 (P-AKT-S473), in the PC3 human prostate carcinoma line, by means of the technique based on a sandwich immunoassay using the MSD Multi-spot Biomarker Detection kit from Meso Scale Discovery: phospho-Akt (Ser473) whole cell lysate kit (#K151CAD) or phospho-Akt (Ser473)/Total Akt whole cell lysate kit (#K151OOD). The primary antibody specific for P-AKT-S473 (Kit #K151CAD) is coated onto an electrode in each well of the 96-well plates of the MSD kit: after the addition of a protein lysate to each well, the signal is visualised by adding a secondary detection antibody labelled with an electrochemoluminescent compound. The procedure followed is that described in the kit.
as §2, with “96-well” for “6-well”, “#92096)” for “#92006)”, “35 000” for “0.8×10^6”, “200” for “1800”, “(FCS” for “(SVF”
as §3, with “h” for “hours”, “5% of” for “5%”, “20-times” for “10-times”
After this incubation, the cells are lysed for the preparation of the proteins. For this, after the culture medium has been drawn off, 50 μl of complete Tris Lysis Buffer of the MSD kit containing the protease and phosphatase inhibitor solutions are added to the wells and the cells are lysed for 1 h at 4° C. with shaking. At this stage, the plates containing the lysates can be stored at −20° C. or at −80° C.
The wells of the 96-well plates of the MSD kit are saturated for 1 h at ambient temperature with the blocking solution of the MSD kit. Four washes are carried out with 150 μl of Tris Wash Buffer of the MSD kit. The lysates previously prepared are transferred into the 96-well multi-spot plates of the MSD kit and incubated for 1 h at ambient temperature, with shaking. Four washes are carried out with 150 μl of Tris Wash Buffer of the MSD kit. 25 μl of the MSD sulfo-tag detection antibody solution are added to the wells and incubated for 1 h at ambient temperature, with shaking. Four washes are carried out with 150 μl of Tris Wash Buffer of the MSD kit. 150 μl of Read Buffer of the MSD kit are added to the wells and the plates are read immediately on the S12400 instrument from Meso Scale Discovery.
The instrument measures a signal for each well. Wells without cells and containing the lysis buffer serve to determine the background noise that will be subtracted from all the measurements (min). The wells containing cells in the absence of product and in the presence of 0.1% DMSO are considered to be the 100% signal (max). The percentage inhibition is calculated for each concentration of test product according to the following formula: (1-((test−min)/(max−min)))×100.
The activity of the product is translated to IC50, obtained from a dose-response curve of the various concentrations tested and representing the dose giving 50% specific inhibition (absolute IC50). 2 independent experiments make it possible to calculate the mean of the IC50 values.

[4] = system: P. falciparum (highly chloroquine-resistant strain Fcm29-Cameroon); assay: Antimalarial activity test (radioactive micromethod of Desjardins, tritiated hypoxanthine incorporation); conditions: Plasmodium falciparum, Erythrocyte, infected human erythrocytes, 48 h
Protocol: Antimalarial Activity Test
The antimalarial activity tests are carried out according to the radioactive micromethod of Desjardins (R. E. Desjardins, C. J. Canfield, J. D. Haynes, J. D. Chulay, Antimicrob. Agents Chemother., 1979, 16, 710-718). The assays are carried out in 96-well microplates (Test Plates Ref. 92696, Techno Plastic Products Ag, Zollstrasse 155, CH-8219 Trasadingen). The P. falciparum strains are cultured in solutions of RPMI 1640 supplemented with 5% of human serum with a haematocrit at 2% and a blood parasite concentration at 1.5%. For each assay, the parasites are incubated with selected concentrations of drugs for 48 h at 37° C. in a humid atmosphere and at 5% CO2. Artemisinin, artesunate and also chloroquine diphosphate are used as reference molecules. The first dilution of the drug is prepared at 1 mg/ml in dimethyl sulphoxide. The range of dilutions of the successive daughter solutions is also prepared in dimethyl sulphoxide. Each daughter dilution is subsequently diluted to 1/50 in RPMI 1640 supplemented with 5% of human serum, all the dilutions being carried out at 37° C. These dilutions are then added to the parasites in culture in the microplates. After addition of the drug, the parasites are in culture in RPMI 1640 containing 5% of human serum and 1% of dimethyl sulphoxide. The parasite growth is measured by incorporation of tritiated hypoxanthine (added 24 h after the beginning of the exposure to the drug) compared with the incorporation in the absence of drug.
The activity of the product is translated to % inhibition of the growth of P. falciparum (highly chloroquine-resistant strain Fcm29-Cameroon) at 1 μM and 0.1 μM in an in vitro test using infected human erythrocytes.

| SMILES | IC50 [1] [nM] | IC50 [2] [nM] | IC50 [3] [nM] | inhibition at 1 µM [4] [%] | inhibition at 0.1 µM [4] [%] |
| --- | --- | --- | --- | --- | --- |
| CCC(c1ccccc1)N1c2nc(N3CCOCC3)cc(=O)n2C[C@@]1(C)C(F)(F)F (single isomer, unassigned) [Example 14, (S)-2-Methyl-7-morpholin-4-yl-1-((S) or (R)-1-phenylpropyl)-2-trifluoromethyl-2,3-dihydro-1H-imidazo[1,2-a]pyrimidin-5-one] | 174 | – | – | – | – |
| C[C@@]1(C(F)(F)F)Cn2c(nc(N3CCOCC3)cc2=O)N1CCc1ccccc1Cl [Example 27, (2S)-1-[2-(2-Chlorophenyl)ethyl]-2-methyl-7-(morpholin-4-yl)-2-(trifluoromethyl)-2,3-dihydroimidazo[1,2-a]pyrimidin-5(1H)-one] | – | 51 | 24 | 53 | – |
| COc1cccc(CCN2c3nc(N4CCOCC4)cc(=O)n3C[C@@]2(C)C(F)(F)F)c1 [Example 26, (2S)-1-[2-(3-Methoxyphenyl)ethyl]-2-methyl-7-(morpholin-4-yl)-2-(trifluoromethyl)-2,3-dihydroimidazo[1,2-a]pyrimidin-5(1H)-one] | – | – | 16 | 75 | 14 |

Now from value to compound, other results behind:

| IC50 [1] [nM] | IC50 [2] [nM] | IC50 [3] [nM] | SMILES | inhibition at 1 µM [4] [%] | inhibition at 0.1 µM [4] [%] |
| --- | --- | --- | --- | --- | --- |
| – | 261 | 6 | C[C@@]1(C(F)(F)F)Cn2c(nc(N3CCOCC3)cc2=O)N1CCc1cccc(Cl)c1 [Example 29, (2S)-1-[2-(3-Chlorophenyl)ethyl]-2-methyl-7-(morpholin-4-yl)-2-(trifluoromethyl)-2,3-dihydroimidazo[1,2-a]pyrimidin-5(1H)-one] | 52 | – |
| – | 198 | 10 | C[C@@]1(C(F)(F)F)Cn2c(nc(N3CCOCC3)cc2=O)N1CCc1ccc(Cl)cc1 [Example 28, (2S)-1-[2-(4-Chlorophenyl)ethyl]-2-methyl-7-(morpholin-4-yl)-2-(trifluoromethyl)-2,3-dihydroimidazo[1,2-a]pyrimidin-5(1H)-one] | 53 | 14 |
